The target of experiment [1] is M^Pro-eGFP fusion protein (Severe acute respiratory syndrome coronavirus 2, UniProt P0DTD1, Q3569G). The experiment is classed as cell-based, SARS-CoV-2.
Experiment [2] has as its system recombinant SARS-CoV-2 Δ3678 mGFP containing an NSP5 E166A mutation. The format is cell-based.
For a further experiment, the target named is M^Pro (Severe acute respiratory syndrome coronavirus 2, UniProt P0DTD1). The format is cell-based, SARS-CoV-2.
Experiment [3] deals with SARS-CoV-2 delta variant hCoV-19/USA/MD-HP05647/2021. The experiment is classed as cell-based.
The test system of experiment [4] is recombinant SARS-CoV-2 Δ3678 mGFP containing an NSP5 E166A mutation. The settings on record: cited from earlier work.

“Also recorded” adds a separate entry of the source. Residues, ends and D or L forms follow the SMILES beside them. *: point of attachment. Cbz = O=C(OCc1ccccc1)*

The values that follow come from article PMC11056980 (Journal of medicinal chemistry, 2024).

On to `CC(C)C[C@@H](C=O)NC(=O)[C@H](CC(C)C)NC(=O)[C@H](CC(C)C)NC(=O)OCc1ccccc1` [MG132, reference compound] (Cbz-Leu-Leu-Leu-aldehyde), for which the “Effect of proteasome inhibitor pretreatment on MPD2-induced M^Pro degradation” value in experiment [1] is on record as “effectively rescued”.

For the molecule `C[C@@H](OC(C)(C)C)[C@H](NC(=O)OCc1ccccc1)C(=O)N[C@@H](CC1CCCCC1)C(=O)N[C@H](C=O)C[C@@H]1CCNC1=O` [MPI8, reference compound], the “Effect of pretreatment on MPD2-induced M^Pro degradation (competition)” value in experiment [1] is recorded as “completely blocked”.

Consider `C[C@@H](OC(C)(C)C)[C@H](NC(=O)OCc1cccc(OCCCCCCOc2cccc3c2C(=O)N(C2CCC(=O)NC2=O)C3=O)c1)C(=O)N[C@@H](CC1CCCCC1)C(=O)N[C@H](C=O)C[C@@H]1CCNC1=O` (some centres unmarked) [MPD2], for which, in experiment [2], the “greater potency against NSP5 E166A mutant virus compared to wild-type Δ3678 mGFP” value is reported as 5 fold. Also, in experiment [1], the “M^Pro degradation in CRBN knockout vs wildtype CRBN cells” value is “significant rescue of intracellular M^Pro” and the “M^Pro degradation, time course” value is “significant degradation; also recorded: nearly maximal degradation”. Moreover, at M^Pro, the “M^Pro degradation during SARS-CoV-2 infection” value is reported as “most potent degrader”. Also, the “antiviral synergy with nirmatrelvir” value in experiment [3] is reported as “synergistic effects”.

Regarding `CC(C)(C)[C@H](NC(=O)C(F)(F)F)C(=O)N1C[C@H]2[C@@H]([C@H]1C(=O)N[C@H](C#N)C[C@@H]1CCNC1=O)C2(C)C` [nirmatrelvir], in experiment [4], the “resistance conferred by NSP5 E166A mutation” value is recorded as 10 fold.
